The experiment concerns the target human orexin type 2 receptor (hOX2R) (Homo sapiens (Human), UniProt O43614). Kind of experiment: Measurement of orexin type 2 receptor agonist activity (Experimental Example 2-1, FLIPR TETRA, intracellular Ca2+). Format: cell-based. The note with it: CHO dhfr- cells expressing hOX2R; for Emax at 30 µM: value at 30 uM concentration, orexin B as full agonist = 100%; for Emax: read-out: Emax (%). From the text:
To obtain a cell clone stably expressing human orexin type 2 receptor, human orexin type 2 receptor cDNA was inserted into pcDNA3.1(+) plasmid vector (Invitrogen), and a plasmid DNA for expression of human orexin type 2 receptor (pcDNA3.1(+)/hOX2R) was cloned. The plasmid DNA was introduced into CHO-dhfr cell by an electroporation method, and human orexin type 2 receptor expressing clone cells were obtained by limiting dilution method by using G418 drug resistance as a selection marker.
Chinese hamster ovary (CHO) dhfr-cells forcibly expressing human orexin type 2 receptor (hOX2R) were seeded in each well of Black clear bottom plate (384 wells) (Becton, Dickinson and Company) by 10,000 cells, and cultured for 16 hr in an MEM-alpha (Nikken-Bio Co., Ltd.) medium containing 100 U/ml penicillin, 100 μg/ml streptomycin, […] G418 (all above Invitrogen), and 10% fetal calf serum (Thermo), under the conditions of 37° C., 5% CO2. […] A test compound was dissolved in dimethyl sulfoxide to 10 mM, and then diluted with assay buffer 2 (20 mM HEPES, Hanks' balanced salt solution (Invitrogen), 0.1% bovine serum albumin). For the reaction, a test compound solution (10 μL) was added using Fluorescent Imaging Plate Reader TETRA (FLIPR TETRA; manufactured by Molecular Devices), a fluorescence value (excitation wavelength 488 nm, measurement wavelength 570 nm) of each well was measured every one second for 1 min, and the agonist activity was determined using the area of the fluorescence value as an indicator of intracellular Ca^2+ concentration.

[1] abbreviates: agonist activity, 10 nM human orexin B = 100%.

In general, EC50 refers to the concentration giving half of the maximal effect. A high value points to weaker potency. As a reminder, the Emax is the maximal effect, on the per cent scale that the assay sets.

Chain of human orexin type 2 receptor (hOX2R) (O43614 whole entry): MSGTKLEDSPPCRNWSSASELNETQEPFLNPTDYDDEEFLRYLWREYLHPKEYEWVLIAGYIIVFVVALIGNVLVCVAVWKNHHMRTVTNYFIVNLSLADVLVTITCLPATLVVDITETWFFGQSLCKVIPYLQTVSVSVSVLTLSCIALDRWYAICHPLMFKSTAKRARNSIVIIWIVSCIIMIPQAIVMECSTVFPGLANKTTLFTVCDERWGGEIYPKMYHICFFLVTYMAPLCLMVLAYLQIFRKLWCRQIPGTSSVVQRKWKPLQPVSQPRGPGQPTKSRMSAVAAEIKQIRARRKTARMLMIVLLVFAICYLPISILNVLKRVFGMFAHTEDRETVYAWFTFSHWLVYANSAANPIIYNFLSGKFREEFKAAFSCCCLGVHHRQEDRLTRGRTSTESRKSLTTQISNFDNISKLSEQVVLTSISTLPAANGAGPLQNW

In the case of `COCC(=O)N1CCC[C@H](NS(C)(=O)=O)[C@@H]1CO[C@H]1CC[C@@H](c2ccccc2)CC1` (relative stereo) [Example 119, N-(cis-1-(methoxyacetyl)-2-(((cis-4-phenylcyclohexyl)oxy)methyl)piperidin-3-yl)methanesulfonamide], the maximal effect (Emax) at 30 µM came to 107%. Under setting [1], it took 30 nM to reach a half-maximal effect (EC50).
The compound `CS(=O)(=O)N[C@H]1CCCN(C(=O)C2COC2)[C@H]1CO[C@H]1CC[C@@H](c2ccccc2)CC1` (relative stereo) [Example 120, N-(cis-1-(oxetan-3-ylcarbonyl)-2-(((cis-4-phenylcyclohexyl)oxy)methyl)piperidin-3-yl)methanesulfonamide] registered an Emax at 30 µM of 96%. The same compound registered a 50% effective concentration (EC50) under setting [1] of 61 nM.
Consider `CS(=O)(=O)N[C@H]1CCCN(C(=O)C2CCOCC2)[C@H]1CO[C@H]1CC[C@@H](c2ccccc2)CC1` (relative stereo) [Example 121, N-(cis-2-(((cis-4-phenylcyclohexyl)oxy)methyl)-1-(tetrahydro-2H-pyran-4-ylcarbonyl)piperidin-3-yl)methanesulfonamide], for which, under “FLIPR TETRA, Fluo-4AM”, the response was half-maximal at 8.8 nM (EC50) and the Emax turned out to be 111%.
For `CCNC(=O)N1CCC[C@H](NS(C)(=O)=O)[C@@H]1COC1CCN(c2ccccc2)CC1` (relative stereo) [Example 123, cis-N-ethyl-3-((methylsulfonyl)amino)-2-(((1-phenylpiperidin-4-yl)oxy)methyl)piperidine-1-carboxamide] the same measures were 390 nM and 120%.
For `CCNC(=O)N1CCC[C@H](NS(C)(=O)=O)[C@@H]1COC1CCC(OC)CC1` (relative stereo) [Example 126, cis-N-ethyl-2-(((4-methoxycyclohexyl)oxy)methyl)-3-((methylsulfonyl)amino)piperidine-1-carboxamide] the same measures were 2600 nM and 85%.
The corresponding values for `CC(=O)N1CCC[C@H](NS(C)(=O)=O)[C@@H]1CO[C@H]1CC[C@@H](C)CC1` (relative stereo) [Example 128, N-(cis-1-acetyl-2-(((cis-4-methylcyclohexyl)oxy)methyl)piperidin-3-yl)methanesulfonamide] are 2400 nM and 88%.
Consider `CCNC(=O)N1CCC[C@H](NS(C)(=O)=O)[C@@H]1CO[C@H]1CC[C@@H](C)CC1` (relative stereo) [Example 129, cis-N-ethyl-2-(((cis-4-methylcyclohexyl)oxy)methyl)-3-((methylsulfonyl)amino)piperidine-1-carboxamide], for which, for the setting “FLIPR TETRA, Fluo-4AM”, the EC50 came out at 39 nM and the Emax amounted to 96%.
For `CCNC(=O)N1CCC[C@H](NS(C)(=O)=O)[C@@H]1CO[C@H]1C[C@H](c2ccccc2)C1` (relative stereo) [Example 130, cis-N-ethyl-3-((methylsulfonyl)amino)-2-(((trans-3-phenylcyclobutyl)oxy)methyl)piperidine-1-carboxamide], where the note is “FLIPR TETRA, Fluo-4AM”, the 50% effective concentration (EC50) was 460 nM and the maximum response (Emax) came to 96%.
With `CN(C)CC(=O)N1CCC[C@H](NS(C)(=O)=O)[C@@H]1CO[C@H]1CC[C@@H](c2ccccc2)CC1` (relative stereo) [Example 133, N-(cis-1-(N,N-dimethylglycyl)-2-(((cis-4-phenylcyclohexyl)oxy)methyl)piperidin-3-yl)methanesulfonamide], where the note is “FLIPR TETRA, Fluo-4AM”, the EC50 turned out to be 1000 nM and the Emax is 97%.
For `CCNC(=O)N1CCC[C@H](NS(C)(=O)=O)[C@@H]1CO[C@H]1CC[C@@H](c2cccc(F)c2F)CC1` (relative stereo) [Example 136, cis-2-(((cis-4-(2,3-difluorophenyl)cyclohexyl)oxy)methyl)-N-ethyl-3-((methylsulfonyl)amino)piperidine-1-carboxamide] the same measures were 0.22 nM and 102%.
For `CCNC(=O)N1CCC[C@H](NS(C)(=O)=O)[C@@H]1CO[C@H]1CC[C@@H](c2cnn(C)c2)CC1` (relative stereo) [Example 137, cis-N-ethyl-2-(((cis-4-(1-methyl-1H-pyrazol-4-yl)cyclohexyl)oxy)methyl)-3-((methylsulfonyl)amino)piperidine-1-carboxamide] the same measures were 240 nM and 101%.
Consider `CS(=O)(=O)N[C@H]1CCCN(C(=O)Cn2cccn2)[C@H]1CO[C@H]1CC[C@@H](c2ccccc2)CC1` (relative stereo) [Example 138, N-(cis-2-(((cis-4-phenylcyclohexyl)oxy)methyl)-1-(1H-pyrazol-1-ylacetyl)piperidin-3-yl)methanesulfonamide], for which, under “FLIPR TETRA, Fluo-4AM”, the EC50 is 22 nM and the Emax was 94%.
With `CS(=O)(=O)N[C@H]1CCCN(C(=O)C(F)F)[C@H]1CO[C@H]1CC[C@@H](c2ccccc2)CC1` (relative stereo) [Example 139, N-(cis-1-(difluoroacetyl)-2-(((cis-4-phenylcyclohexyl)oxy)methyl)piperidin-3-yl)methanesulfonamide], the Emax (FLIPR TETRA, Fluo-4AM) is 103%.
In the case of `CCNC(=O)N1CCC[C@H](NS(C)(=O)=O)[C@@H]1CO[C@H]1CO[C@@H](c2ccccc2)OC1` (relative stereo) [Example 140, cis-N-ethyl-3-((methylsulfonyl)amino)-2-(((cis-2-phenyl-1,3-dioxan-5-yl)oxy)methyl)piperidine-1-carboxamide], under “FLIPR TETRA, Fluo-4AM”, the EC50 was 390 nM and the Emax was 92%.
For `CC(=O)N1CCC[C@H](NS(C)(=O)=O)[C@@H]1CO[C@H]1CC[C@@H](c2ccc(F)c(F)c2)CC1` (relative stereo) [Example 141, N-(cis-1-acetyl-2-(((cis-4-(3,4-difluorophenyl)cyclohexyl)oxy)methyl)piperidin-3-yl)methanesulfonamide] the same measures were 460 nM and 95%.
As to `CS(=O)(=O)N[C@H]1CCCN[C@H]1CO[C@H]1CC[C@@H](c2ccc(F)cc2F)CC1` (relative stereo) [Example 142, N-(cis-2-(((cis-4-(2,4-difluorophenyl)cyclohexyl)oxy)methyl)piperidin-3-yl)methanesulfonamide], for the setting “FLIPR TETRA, Fluo-4AM”, the EC50 is 4000 nM and the Emax was 96%.
Consider `Cn1ccc([C@H]2CC[C@@H](OC[C@@H]3NCCC[C@@H]3NS(C)(=O)=O)CC2)n1` (relative stereo) [Example 143, N-(cis-2-(((cis-4-(1-methyl-1H-pyrazol-3-yl)cyclohexyl)oxy)methyl)piperidin-3-yl)methanesulfonamide], for which the maximal response (Emax) (FLIPR TETRA, Fluo-4AM) amounted to 96%.
Turning to `CCNC(=O)N1CCC[C@H](NS(C)(=O)=O)[C@@H]1CO[C@H]1CC[C@@H](c2ccc(F)c(F)c2)CC1` (relative stereo) [Example 144, cis-2-(((cis-4-(3,4-difluorophenyl)cyclohexyl)oxy)methyl)-N-ethyl-3-((methylsulfonyl)amino)piperidine-1-carboxamide], for the setting “FLIPR TETRA, Fluo-4AM”, the EC50 is 1 nM and the Emax worked out at 104%.
In the case of `CC(=O)N1CCC[C@H](NS(C)(=O)=O)[C@@H]1CO[C@H]1CC[C@@H](c2ccc(F)cc2F)CC1` (relative stereo) [Example 145, N-(cis-1-acetyl-2-(((cis-4-(2,4-difluorophenyl)cyclohexyl)oxy)methyl)piperidin-3-yl)methanesulfonamide], under “FLIPR TETRA, Fluo-4AM”, the EC50 was determined as 810 nM and the Emax is 106%.
The corresponding values for `CCNC(=O)N1CCC[C@H](NS(C)(=O)=O)[C@@H]1CO[C@H]1CC[C@@H](c2ccc(F)cc2F)CC1` (relative stereo) [Example 146, cis-2-(((cis-4-(2,4-difluorophenyl)cyclohexyl)oxy)methyl)-N-ethyl-3-((methylsulfonyl)amino)piperidine-1-carboxamide] are 2.5 nM and 100%.
For the compound `COC(=O)N1CCC[C@H](NS(C)(=O)=O)[C@@H]1COC1CCN(c2ncccn2)CC1` (relative stereo) [Example 151, methyl cis-3-((methylsulfonyl)amino)-2-(((1-(pyrimidin-2-yl)piperidin-4-yl)oxy)methyl)piperidine-1-carboxylate], under “FLIPR TETRA, Fluo-4AM”, the EC50 turned out to be 490 nM and the Emax came out at 107%.
Turning to `CS(=O)(=O)N[C@H]1CCCN(S(C)(=O)=O)[C@H]1CO[C@H]1CC[C@@H](c2ccccc2)CC1` (relative stereo) [Example 152, N-(cis-1-(methylsulfonyl)-2-(((cis-4-phenylcyclohexyl)oxy)methyl)piperidin-3-yl)methanesulfonamide], under “FLIPR TETRA, Fluo-4AM”, the maximum response (Emax) worked out at 96%.
Consider `COC(=O)N1CCC[C@H](NS(C)(=O)=O)[C@@H]1CO[C@H]1CC[C@@H](c2ccn(C)n2)CC1` (relative stereo) [Example 154, methyl cis-2-(((cis-4-(1-methyl-1H-pyrazol-3-yl)cyclohexyl)oxy)methyl)-3-((methylsulfonyl)amino)piperidine-1-carboxylate], for which, where the note is “FLIPR TETRA, Fluo-4AM”, the EC50 was determined as 2400 nM and the Emax amounted to 94%.
